Test results from article PMC3853768 (Molecular Pain, 2013).
“Also recorded” adds a separate entry of the source.

Assays:
residual ICa = assay type: cell-based, mouse
R-type channels (Cav2.3) = assay type: cell-based, mouse

Row | Compound | block of residual ICa (residual ICa) | effect on ICa of R-type blocker (R-type channels (Cav2.3))
1 | [Cl][Cd][Cl] [CdCl2] | residual ICa was blocked | –
2 | SNX-482: blocker of R-type channels (Cav2.3), from Peptide Institute (GVDKAGCRYMFGGCSVNDDCCPRLGCHSLFSYCAWDLTFSD; UniProt P56854 1-41, looked up) | – | lack of effect; also recorded: without effect
